These compounds were tested on MCH receptors (assay: MCH receptor activity class (method not given)). Conditions: class by percent of control at 10^-7 M or IC50.
In the case of `CN(C)c1nc(N[C@H]2CC[C@@H](NCc3coc4ccc(Cl)cc4c3=O)CC2)nc2c1CCCC2` [compound 1355], the class was 3 (Class 3 The value of percent of control at 10^−7 M was more than 60% or the value of IC50 was more than 200 nM.).
`CN(C)c1nc(N[C@H]2CC[C@@H](NCc3cncc(-c4ccc(F)cc4)c3)CC2)nc2c1CCCC2` [compound 1356] was tested, and the class was 3 (Class 3 The value of percent of control at 10^−7 M was more than 60% or the value of IC50 was more than 200 nM.).
For `CCOC(=O)c1[nH]c2cc(Cl)cc(Cl)c2c1CN[C@H]1CC[C@@H](Nc2nc3c(c(N(C)C)n2)CCCC3)CC1` [compound 1357], the class was 1 (Class 1: The value of percent of control at 10^−7 M was less than 40% or the value of IC50 was less than 50 nM.).
In the case of `COC(=O)c1ccccc1Sc1nc2sccn2c1CN[C@H]1CC[C@@H](Nc2nc3c(c(N(C)C)n2)CCCC3)CC1` [compound 1358], the class was 3 (Class 3 The value of percent of control at 10^−7 M was more than 60% or the value of IC50 was more than 200 nM.).
`CN(C)c1nc(N[C@H]2CC[C@@H](NCc3c[nH]nc3-c3ccc(F)cc3)CC2)nc2c1CCCC2` [compound 1359] was tested, and the class was 1 (Class 1: The value of percent of control at 10^−7 M was less than 40% or the value of IC50 was less than 50 nM.).
With `CSc1ccc(CN[C@H]2CC[C@@H](Nc3nc4c(c(N(C)C)n3)CCCC4)CC2)cc1` [compound 1360] the class was 3 (Class 3 The value of percent of control at 10^−7 M was more than 60% or the value of IC50 was more than 200 nM.).
For `CN(C)c1nc(N[C@H]2CC[C@@H](NCc3cccc4ccccc34)CC2)nc2c1CCCC2` [compound 1361], the class was 3 (Class 3 The value of percent of control at 10^−7 M was more than 60% or the value of IC50 was more than 200 nM.).
With `COc1cc(CN[C@H]2CC[C@@H](Nc3nc4c(c(N(C)C)n3)CCCC4)CC2)ccc1O` [compound 1362] the class was 3 (Class 3 The value of percent of control at 10^−7 M was more than 60% or the value of IC50 was more than 200 nM.).
In the case of `CN(C)c1nc(N[C@H]2CC[C@@H](NCc3ccc(F)c(Cl)c3)CC2)nc2c1CCCC2` [compound 1363], the class was 3 (Class 3 The value of percent of control at 10^−7 M was more than 60% or the value of IC50 was more than 200 nM.).
`COc1cccc(OC)c1CNC[C@H]1CC[C@@H](Nc2nc3c(c(N(C)C)n2)CCCC3)CC1` [compound 1364] was tested, and the class was 1 (Class 1: The value of percent of control at 10^−7 M was less than 40% or the value of IC50 was less than 50 nM.).
In the case of `CCOc1ccccc1CNC[C@H]1CC[C@@H](Nc2nc3c(c(N(C)C)n2)CCCC3)CC1` [compound 1365], the class was 2 (Class 2: The value of percent of control at 10^−7 M was from 40% to 60% or the value of IC′50 was from 50 nM to 200 nM.).
For `CN(C)c1nc(N[C@H]2CC[C@@H](CNCc3c[nH]c4ccccc34)CC2)nc2c1CCCC2` [compound 1366], the class was 2 (Class 2: The value of percent of control at 10^−7 M was from 40% to 60% or the value of IC′50 was from 50 nM to 200 nM.).
With `COc1ccc(OC)c(CNC[C@H]2CC[C@@H](Nc3nc4c(c(N(C)C)n3)CCCC4)CC2)c1` [compound 1367] the class was 2 (Class 2: The value of percent of control at 10^−7 M was from 40% to 60% or the value of IC′50 was from 50 nM to 200 nM.).
With `COc1ccc(CNC[C@H]2CC[C@@H](Nc3nc4c(c(N(C)C)n3)CCCC4)CC2)c2ccccc12` [compound 1368] the class was 2 (Class 2: The value of percent of control at 10^−7 M was from 40% to 60% or the value of IC′50 was from 50 nM to 200 nM.).
For `COc1ccc2[nH]cc(CNC[C@H]3CC[C@@H](Nc4nc5c(c(N(C)C)n4)CCCC5)CC3)c2c1` [compound 1369], the class was 1 (Class 1: The value of percent of control at 10^−7 M was less than 40% or the value of IC50 was less than 50 nM.).
In the case of `COc1ccc2ccccc2c1CNC[C@H]1CC[C@@H](Nc2nc3c(c(N(C)C)n2)CCCC3)CC1` [compound 1370], the class was 3 (Class 3 The value of percent of control at 10^−7 M was more than 60% or the value of IC50 was more than 200 nM.).
`COc1cc(Br)cc(CNC[C@H]2CC[C@@H](Nc3nc4c(c(N(C)C)n3)CCCC4)CC2)c1O` [compound 1371] was tested, and the class was 2 (Class 2: The value of percent of control at 10^−7 M was from 40% to 60% or the value of IC′50 was from 50 nM to 200 nM.).
In the case of `CN(C)c1nc(N[C@H]2CC[C@@H](CNCc3c[nH]c4ccc(Br)cc34)CC2)nc2c1CCCC2` [compound 1372], the class was 1 (Class 1: The value of percent of control at 10^−7 M was less than 40% or the value of IC50 was less than 50 nM.).
In the case of `COc1ccc(CNC[C@H]2CC[C@@H](Nc3nc4c(c(N(C)C)n3)CCCC4)CC2)c(OC)c1` [compound 1373], the class was 3 (Class 3 The value of percent of control at 10^−7 M was more than 60% or the value of IC50 was more than 200 nM.).
With `COc1ccc(CNC[C@H]2CC[C@@H](Nc3nc4c(c(N(C)C)n3)CCCC4)CC2)c(OC)c1OC` [compound 1374] the class was 3 (Class 3 The value of percent of control at 10^−7 M was more than 60% or the value of IC50 was more than 200 nM.).
`COc1cc(CNC[C@H]2CC[C@@H](Nc3nc4c(c(N(C)C)n3)CCCC4)CC2)cc(OC)c1O` [compound 1375] was tested, and the class was 3 (Class 3 The value of percent of control at 10^−7 M was more than 60% or the value of IC50 was more than 200 nM.).
`CCOc1cc(CNC[C@H]2CC[C@@H](Nc3nc4c(c(N(C)C)n3)CCCC4)CC2)ccc1OC` [compound 1376] was tested, and the class was 1 (Class 1: The value of percent of control at 10^−7 M was less than 40% or the value of IC50 was less than 50 nM.).
With `CN(C)c1nc(N[C@H]2CC[C@@H](CNCc3c[nH]nc3-c3ccc(C(F)(F)F)cc3)CC2)nc2c1CCCC2` [compound 1377] the class was 2 (Class 2: The value of percent of control at 10^−7 M was from 40% to 60% or the value of IC′50 was from 50 nM to 200 nM.).
With `COc1cc(CNC[C@H]2CC[C@@H](Nc3nc4c(c(N(C)C)n3)CCCC4)CC2)cc(OC)c1OC` [compound 1378] the class was 2 (Class 2: The value of percent of control at 10^−7 M was from 40% to 60% or the value of IC′50 was from 50 nM to 200 nM.).
`COc1cc(CNC[C@H]2CC[C@@H](Nc3nc4c(c(N(C)C)n3)CCCC4)CC2)cc(OC)c1` [compound 1380] was tested, and the class was 2 (Class 2: The value of percent of control at 10^−7 M was from 40% to 60% or the value of IC′50 was from 50 nM to 200 nM.).
`COc1cc(CNC[C@H]2CC[C@@H](Nc3nc4c(c(N(C)C)n3)CCCC4)CC2)cc(I)c1O` [compound 1381] was tested, and the class was 1 (Class 1: The value of percent of control at 10^−7 M was less than 40% or the value of IC50 was less than 50 nM.).
In the case of `Cc1cc(CNC[C@H]2CC[C@@H](Nc3nc4c(c(N(C)C)n3)CCCC4)CC2)cc(C)c1O` [compound 1382], the class was 2 (Class 2: The value of percent of control at 10^−7 M was from 40% to 60% or the value of IC′50 was from 50 nM to 200 nM.).
`COc1ccc(CNC[C@H]2CC[C@@H](Nc3nc4c(c(N(C)C)n3)CCCC4)CC2)cc1` [compound 1383] was tested, and the class was 3 (Class 3 The value of percent of control at 10^−7 M was more than 60% or the value of IC50 was more than 200 nM.).
In the case of `CN(C)c1nc(N[C@H]2CC[C@@H](CNCc3ccc4c(c3)OCCO4)CC2)nc2c1CCCC2` [compound 1384], the class was 3 (Class 3 The value of percent of control at 10^−7 M was more than 60% or the value of IC50 was more than 200 nM.).
With `CN(C)c1nc(N[C@H]2CC[C@@H](CNCc3cccc(Br)c3)CC2)nc2c1CCCC2` [compound 1385] the class was 3 (Class 3 The value of percent of control at 10^−7 M was more than 60% or the value of IC50 was more than 200 nM.).
